Patent publication US20170056381A1, “PYRIDOXAMINE FOR THE TREATMENT OF SICKLE CELL DISEASE, THALASSEMIA AND RELATED BLOOD DISEASES” (NANOMETICS LLC, priority 2014, published 2017)

Legend:
Type in all cases: in vivo, mouse
[1] = system: Berkeley mice; assay: MRI perfusion (FAIR-Quipps) cerebral blood flow in Berkeley mice
Protocol: (§1) Experimental Design & Methods: Dose Efficacy Experiment: A single oral dose (gavage) of pyridoxamine (400 mg/kg) was administered to BERK mice (n=6) or C57bl WT mice (n=4) and CBF and deoxyHb levels measured (see below for Measurement Parameters) before treatment and 2 h, 24 h, 72 h, 5 days and 9 days after treatment. Measurement Parameters: Each animal was assessed for several parameters by magnetic resonance imaging (MRI) methods on a 9.4 T Agilent MRI system. The primary MRI methods included brain and muscle perfusion, water diffusivity and oxygenation. Data acquisition was by multi-shot (8) Echo Planer Imaging (msEPI) (segmented and interleaved). Perfusion data were acquired using amultislice FAIR-Quipps approach, and blood oxygenation was determined from T2w msEPI (BOLD). Inflammation was inferred from the mean diffusivity of water calculated from a Diffusion Tensor Imaging (DTI) measurement which estimates the apparent diffusion coefficient of water (ADC). Transverse relaxation (T2) will be assessed for tissue free-water content using 30 echos (TE: 1.3 ms-240 ms) using multiecho-spin echo approaches. Longitudinal relaxation (T1) is assessed using EPI-inversion recovery (T1: 0.1 s-7 s, TR 8 s). Tissue Oxygenation: Bold Oxygen Level Dependent (BOLD) measurements were made during a hyperoxia challenge. MRI begins while animals are exposed to 20% O2/80% N2 (6 min) and imaging continues while the inspired gas is switched to 100% O2, maintained for 6 minutes, then returned to normal room air levels. BOLD image signal intensity (echo-planer T2* weighted imaging) is inversely sensitive to deoxyHb levels, such that an increase in deoxyHb/oxyHb ratio causes a decrease in BOLD signal, while a decrease in this ratio causes an increase in BOLD signal intensity. Perfusion measurements: Quantitative perfusion measurements (FAIR-Quipps) employ a volume coil for arterial labeling, and surface coil for signal measurement, and a TI of 1200 ms. Water diffusion coefficient: DTI data were collected using a 7 direction assessment, from which both the mean diffusivity (DTI-MD) and fractional anisotropy (DTI-FA) were obtained. DTI-FA provides a measure of white matter integrity and DTI-MD, along with tissue T2 provides a measure of tissue inflammation.
Data Analysis & Interpretation: All images are co-registered to a template using FSL tools (FMRIB Software library, Oxford, UK). The template was constructed of an averaged high-resolution averaged T2-weighted image from 3 co-registered BERK mice, or 3 co-registered C57bl mice. Regions of interest (ROI's) were drawn from standard atlases (Paxonis) on the template, and include white matter (CC and External Caudate), gray matter (Somatosensory, Motor, Frontal, Parietal) Cortex, hippocampus, basal ganglia, cingulate, and others) and cranial muscle from the anterior region of the head. Image data was converted from native format to NIFTI format, intensity flattened, phase corrected, orientation corrected, and registered to the template. Perfusion, BOLD activation ratios and metabolite ratios were calculated using MATLAB (Mathworks, Natick, Mass.). Parameter maps were calculated using a non-linear least squares in Matlab, or using the FMRIB FSL-based Diffusion Toolbox (DTIFIT). Registration was accomplished using the FSL-FLIRT routine. […]

[2] = system: NY1DD mice; assay: Hypoxia/reoxygenation in NY1DD mice, intravital microscopy of cremaster venules
Protocol: NY1DD mice (2×n=6) were exposed to hypoxia for 16 h (gas mixture=10% O2, 0.5% CO2 and balance N2). One group of NY1 DD was then be given an intraperitoneal (i.p.) dose of pyridoxamine (400 mg/kg), dissolved in phosphate buffered saline (PBS), prior to 3 h reoxygenation in ambient conditions. The second group of NY1 DD mice was put through the same hypoxia/reoxygenation process and given vehicle (PBS) as a negative control. Healthy C57 BL/6J mice were used as healthy controls and were not exposed to hypoxia/reoxygenation stress. At the end of the reoxygenation period, the cremaster muscle was excised for intravital microscopy analysis. Intravital microscopy: Mice were anesthetized i.p. with 10% urethane and 2% α-chloralose in saline (6 ml/kg). The animals were tracheotomized and the left carotid artery cannulated to monitor systemic arterial pressure. The open cremaster muscle was prepared according to the method of Baez. The surface of the open cremaster muscle was suffused with a bicarbonate Ringer's solution of the following millimolar composition: NaCl 135.0, KCl 5.0, NaHCO3 27.0, MgCl2 0.64 and glucose 11.6. pH was adjusted to 7.35-7.4 by continuous bubbling with […]. The osmolarity of the solution, as measured by a Microosmette (Precision Systems, Inc., Sudsbury, MA) was 320 mOsm which is similar to that reported for the mouse plasma. The cremaster muscle preparation was allowed to stabilize for 30 min before the initiation of the experiment. The temperature of the suffusion solution (flow rate, 5-6 ml/min) bathing the cremaster was maintained at 34.5-35° C. and monitored by a telethermometer (YSI Inc., Yellowsprings, Ohio) during the entire experiment. Oxygen tension of the suffusion solution bathing the tissue was determined using a microoxygen electrode (model MI-730; Microelectrodes Inc., Bedford, N.H.). Microscopic observations were carried out using microscope (model BH-2; Olympus Corp., Lake Success, N.Y.) equipped with a television camera (5000 Series; Cohu, Inc., San Diego, Calif.) and a Sony U-matic video recorder (model V05800; Sony Corp., Teaneck, N.J.). Identification of venules and arterioles for observation was determined according to the published procedure. Vessel luminal diameter was measured on-line by image shearing using an image shearing device (model 907; Instruments for Physiology and Medicine, San Diego, Calif.). Red cell velocity (Vrbc) was measured along the vessel centerline using the dual-slit photodiode technique of Wayland and Johnson […]. The dual-slit photo detector was placed over the projected image of the vessel and on-line analysis of the optical signals was performed using a cross-correlator as described by Tompkins et al. (Model 102 BF; instruments for Physiology and Medicine). Vrbc measurements were made using a water immersion ×40 objective and ×6.3 eyepiece. The wall shear rates were calculated from the mean Vrbc (Vmean) and vessel diameter. The centerline Vrbc was converted to the mean red cell velocity across the vessel diameter using a conversion factor of 1.6 (Vrbc/Vmean=1.6) originally described by Baker and Wayland. Shear rates along the wall of microvessel of a given internal diameter (D) were calculated using the relationship: Wall shear rate=8 Vmean/D. Estimates of volumetric flow rates (Q) were made from Vmean and the vessel cross-sectional area (π D^2/4). Rolling leukocytes were defined as those leukocytes that distinctly roll along the endothelial surface. The rolling leukocytes were easily distinguished because of their lower velocity compared with that of leukocytes and red cells in the flow. Rolling leukocyte velocity (μm/s) represented the time required for a rolling leukocyte to traverse a given length of venule. An average of rolling velocities of approximately ten leukocytes per venule was determined by frame-by-frame analysis of video replay. […]

[3] = system: Berkeley mice; assay: BOLD MRI during hyperoxia challenge (tissue oxygenation, deoxyHb/oxyHb ratio) in Berkeley mice; conditions: single oral dose 400 mg/kg, gavage
Protocol: as §1, with “BOLD image signal intensity (echo-planer T2* weighted imaging) is inversely sensitive to deoxyHb levels, such that an increase in deoxyHb/oxyHb ratio causes a decrease in BOLD signal, while a decrease in this ratio causes an increase in BOLD signal intensity.” left out, “Water diffusion coefficient: DTI data were collected using a 7 direction assessment, from which both the mean diffusivity (DTI-MD) and fractional anisotropy (DTI-FA) were obtained. DTI-FA provides a measure of white matter integrity and DTI-MD, along with tissue T2 provides a measure of tissue inflammation.” left out
Data Analysis & Interpretation: All images are co-registered to a template using FSL tools (FMRIB Software library, Oxford, UK). […] Perfusion, BOLD activation ratios and metabolite ratios were calculated using MATLAB (Mathworks, Natick, Mass.). Parameter maps were calculated using a non-linear least squares in Matlab, or using the FMRIB FSL-based Diffusion Toolbox (DTIFIT). […]

[4] = system: Berkeley mice; assay: Hypoxia/reoxygenation in Berkeley mice, intravital microscopy; conditions: single i.p. dose; Berkeley mice exposed to hypoxic stress
[5] = single i.p. dose 400 mg/kg, 16 h hypoxia, 3 h reoxygenation, cremaster venules

Cc1ncc(CO)c(CN)c1O [pyridoxamine]
time of maximum effect on cerebral blood flow (CBF) ([1]; single oral dose 400 mg/kg, gavage): 72 h
effect on cerebral blood flow (CBF) ([1]; single oral dose 400 mg/kg, gavage, versus C57 wild type): normalized the CBF to near wild type
time of maximum response of brain perfusion ([1]; single oral dose 100-400 mg/kg): 72 h
effect on perfusion in the brain ([1]; single oral dose 100-400 mg/kg, versus wild type C57BL mice): normalized perfusion in the brain of Berkeley mice to wild type values
duration of sustained effects of treatment ([1]; transgenic mouse models of SCD, single dose): up to 9 days
change in venule diameter ([2]; single i.p. dose 400 mg/kg, 16 h hypoxia, 3 h reoxygenation, 400 mg/kg): minimal change
decrease in leukocyte adhesion [2, 5]: 84%
decrease in leukocyte emigration [2, 5]: 95%
decrease in rolling leukocytes [2, 5]: 24%
increase in red blood cell flow velocity (Vrbc) [2, 5]: 42%
increase in wall shear rate [2, 5]: 92%
hypoxia/reoxygenation induced endothelial activation ([2]; single i.p. dose, NY1DD mice exposed to hypoxic stress): ameliorated
deoxygenated hemoglobin/oxygenated hemoglobin ratio in brain after treatment ([3]; 72 h after treatment): significant decrease
time of maximum effect on brain deoxyHb/oxyHb ratio (BOLD) ([3]; brain): 72 h
time of maximal effect on cranial muscle BOLD signal (oxyhemoglobin increase) ([3]; cranial muscle): 72 h
hypoxia/reoxygenation induced endothelial activation [4]: ameliorated
